Key:
CYP2C9 F476W mutant [1] = biological target: T1, CYP2C9 F476W mutant (Homo sapiens, UniProt P11712, F476W); experiment: biochemical
CYP2C9 F476W mutant [2] = biological target: T1, CYP2C9 F476W mutant; experiment: 1H-NMR T1 relaxation, distances of ligand protons from the heme iron
CYP2C9 F476L mutant = CYP2C9 F476L mutant (Homo sapiens, UniProt P11712, F476L); conditions: F476L
[3] = biological target: CYP2C9 F114L/F476L double mutant (Homo sapiens, UniProt P11712, F114L/F476L); experiment: biochemical
CYP2C9 F100L mutant [4] = biological target: T2, CYP2C9 F100L mutant (Homo sapiens, UniProt P11712, F100L); experiment: biochemical
CYP2C9 F100L mutant [5] = biological target: T2, CYP2C9 F100L mutant

C[C@H](C(=O)O)c1ccc(-c2ccccc2)c(F)c1 [(S)-flurbiprofen] was tested, and the Kd (CYP2C9 F476W mutant [1]) was 18.3 ± 1.9 µM, the “T1, 2C9” value (CYP2C9 F476W mutant [2]; proton H2) was 2.56 (0.15) seconds and the “r, distance of proton from the heme iron” value (CYP2C9 F476W mutant [2]; proton H2) was 6.58 (0.28) angstroms. The “T1, 2C9 + CO” value (CYP2C9 F476W mutant [2]; proton H2, dithionite/CO) was 2.34 (0.14) seconds, the “T1, 2C9” value (CYP2C9 F476W mutant [2]; proton H4′) was 2.88 (0.14) seconds and the “r, distance of proton from the heme iron” value (CYP2C9 F476W mutant [2]; proton H4′) was 6.40 (0.32) angstroms. The “T1, 2C9 + CO” value (CYP2C9 F476W mutant [2]; proton H4′, dithionite/CO) was 2.55 (0.16) seconds, the “T1, 2C9” value (CYP2C9 F476W mutant [2]; proton H5) was 2.11 (0.10) seconds and the “r, distance of proton from the heme iron” value (CYP2C9 F476W mutant [2]; proton H5) was 6.47 (0.24) angstroms. For the same compound, the “T1, 2C9 + CO” value (CYP2C9 F476W mutant [2]; proton H5, dithionite/CO) was 2.24 (0.18) seconds, the “T1, 2C9” value (CYP2C9 F476W mutant [2]; proton H6) was 1.78 (0.08) seconds and the “r, distance of proton from the heme iron” value (CYP2C9 F476W mutant [2]; proton H6) was 6.79 (0.22) angstroms. For the same compound, the “T1, 2C9 + CO” value (CYP2C9 F476W mutant [2]; proton H6, dithionite/CO) was 1.85 (0.08) seconds, the “T1, 2C9” value (CYP2C9 F476W mutant [2]; protons CH3) was 0.67 (0.01) seconds and the “r, distance of proton from the heme iron” value (CYP2C9 F476W mutant [2]; protons CH3) was 5.62 (0.25) angstroms. The “T1, 2C9 + CO” value (CYP2C9 F476W mutant [2]; protons CH3, dithionite/CO) was 0.65 (0.03) seconds, the “T1, 2C9” value (CYP2C9 F476W mutant [2]; protons H2′/6′) was 2.38 (0.06) seconds and the “r, distance of proton from the heme iron” value (CYP2C9 F476W mutant [2]; protons H2′/6′) was 7.15 (0.13) angstroms. For the same compound, the “T1, 2C9 + CO” value (CYP2C9 F476W mutant [2]; protons H2′/6′, dithionite/CO) was 2.54 (0.07) seconds, the “T1, 2C9” value (CYP2C9 F476W mutant [2]; protons H3′/5′) was 2.39 (0.08) seconds and the “r, distance of proton from the heme iron” value (CYP2C9 F476W mutant [2]; protons H3′/5′) was 6.49 (0.20) angstroms. For the same compound, the “T1, 2C9 + CO” value (CYP2C9 F476W mutant [2]; protons H3′/5′, dithionite/CO) was 2.39 (0.16) seconds, the “percent of wild-type ΔA/K” value (CYP2C9 F476L mutant) was 23% and the ΔA/K (CYP2C9 F476L mutant) was 1.2 μM^−1 × 10^−3. For the same compound, the “ΔAmax (maximum observed difference 390–420 nm)” value (CYP2C9 F476L mutant) was 11 ± 0.4 ×10^−3, the Kd [3] was 9.9 ± 1.3 µM and the Kd (CYP2C9 F100L mutant [4]) was 2.2 ± 0.2 µM. The “percent of wild-type kcat/Km” value (CYP2C9 F100L mutant [5]) was 100% and the kcat (CYP2C9 F100L mutant [5]; substrate hydroxylation) was 0.205 ± 0.012 s⁻¹.

Reference: publication PMC2713172 (Biochemistry, 2008)
